From patent publication US12435060B2, “Acylamino bridged heterocyclic compound, and composition and application thereof” (BEIJING SCITECH-MQ PHARMACEUTICALS LIMITED, priority 2019, dated 2025)

Tested on: HT29 cells
Assay: Inhibition of cell necrosis (CCK8 method), induced programmed necrosis of HT29 cells
Type: cell-based
Settings: Homo sapiens, HT-29; rescue from necrosis induced by TNF-α 20 ng/mL, AT-406 1 μM, Z-VAD-FMK 20 μM; 16-20 hours; CCK-8, OD 450 nm
Procedure: Assay Example 2. Assay Method for Compounds Inhibiting Cell Necrosis (CCK8 Method)
In this assay example 2, under the condition of inducing programmed cell necrosis, different concentrations of the test compounds were added to test the IC50 of the rescue effect of the test compounds on the programmed necrosis.
• Compounds: Dissolved in DMSO to make a 10 mM solution; • TNF-α: The initial concentration was 100 μg/mL; • Z-VAD-FMK: Dissolved in DMSO to make a 10 mM solution; • AT-406: Dissolved in DMSO to make a 10 mM solution. I. Experimental Steps • 1) Compound dilution: All test compounds were dissolved in DMSO to prepare a 10 mM stock solution, and the first concentration gradient dilution of the test compounds was completed in DMSO. The gradient dilution factor was 4 times and 9 concentration gradients were made; A 40-fold overall dilution of all compounds was completed in the cell culture medium, and the resulting compound was 10× compound, which will be added to the wells of the 96-well plate containing cells, so that the final cell culture medium was 1× the designed final concentration. The general drug design is 9 concentration gradients, of which the highest final concentration is 25000 nM, the lowest concentration after 4-fold dilution of 9 concentrations is 0.38 nM, and the final concentration of DMSO in all wells is 0.25%. The compound dilution process is shown in FIG. 3. • 2) HT 29 cells in good growth condition were selected, trypsinized, the cells was collected by centrifugation, resuspended in McCOY's 5A complete medium (containing 10% FBS) and counted, and the number of cells and survival rate were recorded. • 3) Cells were inoculated to the 60 wells in the middle of the 96-well culture plate at a density of 12000 cells/80 μL/well, surrounding wells were filled with sterile water, and incubated overnight. • 4) 10 μL of the 10× compound diluted with the medium was added to the assay wells, 10 μL of McCOY's 5A complete medium containing 2.5% DMSO was added to the inducer-free wells and the control wells, mixed and shaked, and incubated for 30 minutes. • 5) Then 10 μL of inducer mixture (TNF-α, AT-406, Z-VAD-FMK with the final concentration of 20 ng/mL, 1 μM, 20 μM) was added into the assay wells and control wells. 10 μL McCOY's 5A complete medium was added to wells without inducer. Cells were cultured in an incubator with 5% CO2, at 37° C. • 6) After culturing for 16-20 hours, 10 μL of CCK-8 reagent was added to each well, and incubated for about 2 hours; • 7) The OD value was read at 450 nm on the multi-function plate reader. • 8) Data processing: Inhibition rate of necrosis (%)=100*(X−B)/(A−B) • A: The OD values of the wells without inducer (containing cells, CCK-8, without compound and inducer); • […]: OD values of assay wells (containing cells, CCK-8, compound, inducer); • B: OD values of control wells (containing cells, CCK-8, inducer, without compound). Then the value were imported into Graphpad Prism5 software for curve fitting and the IC50 values were calculated.

`Cc1ccc(OCC2CCOCC2)cc1-c1cc(NC(=O)c2nnc(CC3CCCCC3)[nH]2)ncc1F` [Example 497, 5-(cyclohexylmethyl)-N-(5-fluoro-4-(2-methyl-5-((tetrahydro-2H-pyran-4-yl)methoxy)phenyl)pyridin-2-yl)-4H-1,2,4-triazole-3-carboxamide] was tested, and the IC50 was ≤ 100 nM.

With `CC(C)(O)COc1ccc(C(F)(F)F)c(-c2ccnc(NC(=O)c3nnc(CC4CCCCC4)[nH]3)c2)c1` [Example 267, 5-(cyclohexylmethyl)-N-(4-(5-(2-hydroxyl-2-methylpropoxy)-2-(trifluoromethyl)phenyl)pyridin-2-yl)-4H-1,2,4-triazole-3-carboxamide] the IC50 was ≤ 100 nM.

For `O=C(Nc1cc(-c2cc(OCC3CCOCC3)ccc2Cl)ccn1)c1nnc(CC2CCCCC2)[nH]1` [Example 402, N-(4-(2-chloro-5-((tetrahydro-2H-pyran-4-yl)methoxy)phenyl)pyridin-2-yl)-5-(cyclohexylmethyl)-4H-1,2,4-triazole-3-carboxamide], the IC50 was ≤ 100 nM.

In the case of `CC(C)(O)CCCCOc1ccc(Cl)c(-c2ccnc(NC(=O)c3nnc(Cc4ccccc4F)[nH]3)c2)c1` [Example 368, 5-(2-fluorobenzyl)-N-(4-(2-chloro-5-((5-hydroxyl-5-methylhexyl)oxy)phenyl)pyridin-2-yl)-4H-1,2,4-triazole-3-carboxamide], the IC50 is reported as ≤ 100 nM.

With `CC(C)OCCOc1ccc(Cl)c(-c2ccnc(NC(=O)c3nnc(Cc4ccccc4F)[nH]3)c2)c1` [Example 388, 5-(2-fluorobenzyl)-N-(4-(2-chloro-5-(2-isopropoxyethoxy)phenyl)pyridin-2-yl)-4H-1,2,4-triazole-3-carboxamide] the IC50 was ≤ 100 nM.

In the case of `CC(C)(O)CCCOc1ccc(C(F)(F)F)c(-c2cc(NC(=O)c3nnc(Cc4ccccc4F)[nH]3)ncn2)c1` [Example 451, 5-(2-fluorobenzyl)-N-(6-(5-((4-hydroxy-4-methylpentyl)oxy)-2-(trifluoromethyl)phenyl)pyrimidin-4-yl)-4H-1,2,4-triazole-3-carboxamide], the IC50 is reported as ≤ 100 nM.

For `Cc1ccc(OCCCCC(C)(C)O)cc1-c1ccnc(NC(=O)c2nnc(CC3CCCC3)[nH]2)c1` [Example 223, 5-(cyclopentylmethyl)-N-(4-(5-((5-hydroxyl-5-methylhexyl)oxy)-2-methylphenyl)pyridin-2-yl)-4H-1,2,4-triazole-3-carboxamide], the IC50 was ≤ 100 nM.

In the case of `Cc1ccc(OCCCC(C)(C)O)cc1-c1ccnc(NC(=O)c2nnc(Cc3cccc(F)c3)[nH]2)c1` [Example 184, 5-(3-fluorobenzyl)-N-(4-(5-((4-hydroxy-4-methylpentyl)oxy)-2-methylphenyl)pyridin-2-yl)-4H-1,2,4-triazole-3-carboxamide], the IC50 is reported as ≤ 100 nM.

For `Cc1ccc(OCCCC(C)(C)O)cc1-c1ccnc(NC(=O)c2nnc(CC3CCC(F)(F)CC3)[nH]2)c1` [Example 178, 5-((4,4-difluorocyclohexyl)methyl)-N-(4-(5-((4-hydroxy-4-methylpentyl)oxy)-2-methylphenyl)pyridin-2-yl)-4H-1,2,4-triazole-3-carboxamide], the IC50 was ≤ 100 nM.

`O=C(Nc1cc(-c2cc(OCC3CCOCC3)ccc2F)c(F)cn1)c1nnc(CC2CCCCC2)[nH]1` [Example 328, 5-(cyclohexylmethyl)-N-(5-fluoro-4-(2-fluoro-5-((tetrahydro-2H-pyran-4-yl)methoxy)phenyl)pyridin-2-yl)-4H-1,2,4-triazole-3-carboxamide] was tested, and the IC50 was ≤ 100 nM.

In the case of `O=C(Nc1cc(-c2cc(OCCCCCO)ccc2Cl)ccn1)c1nnc(CC2CCCC2)[nH]1` [Example 377, N-(4-(2-chloro-5-((5-hydroxypentyl)oxy)phenyl)pyridin-2-yl)-5-(cyclopentylmethyl)-4H-1,2,4-triazole-3-carboxamide], the IC50 is reported as ≤ 100 nM.

In the case of `O=C(Nc1cc(-c2cc(OCC3CCOCC3)ccc2F)c(Cl)cn1)c1nnc(Cc2ccccc2F)[nH]1` [Example 329, N-(5-chloro-4-(2-fluoro-5-((tetrahydro-2H-pyran-4-yl)methoxy)phenyl)pyridin-2-yl)-5-(2-fluorobenzyl)-4H-1,2,4-triazole-3-carboxamide], the IC50 is reported as 100 to 1000 nM.

Work on `Cc1ccc(OCCCCC(C)(C)O)cc1-c1cc(NC(=O)c2nnc(Cc3ccccc3F)[nH]2)ncc1Cl` [Example 247, N-(5-chloro-4-(5-((5-hydroxyl-5-methylhexyl)oxy)-2-methylphenyl)pyridin-2-yl)-5-(2-fluorobenzyl)-4H-1,2,4-triazole-3-carboxamide] yielded an IC50 of 100 to 1000 nM.

In the case of `Cc1ccc(OCCCC(C)(C)O)cc1-c1ccnc(NC(=O)c2nnc(CC3CCOCC3)[nH]2)c1` [Example 177, N-(4-(5-((4-hydroxy-4-methylpentyl)oxy)-2-methylphenyl)pyridin-2-yl)-5-((tetrahydro-2H-pyran-4-yl)methyl)-4H-1,2,4-triazole-3-carboxamide], the IC50 is reported as ≤ 100 nM.

`CCCCOc1ccc(C)c(-c2ccnc(NC(=O)c3nnc(Cc4ccccc4)[nH]3)c2)c1` [Example 198, 5-benzyl-N-(4-(5-butoxy-2-methylphenyl)pyridin-2-yl)-4H-1,2,4-triazole-3-carboxamide] showed an IC50 of 100 to 1000 nM.

For `C=CCCCOc1ccc(C)c(-c2ccnc(NC(=O)c3nnc(Cc4ccccc4)[nH]3)c2)c1` [Example 149, 5-benzyl-N-(4-(2-methyl-5-(pent-4-en-1-yloxy)phenyl)pyridin-2-yl)-4H-1,2,4-triazole-3-carboxamide], the IC50 was ≤ 100 nM.

`Cc1ccc(OCCCC(C)(C)O)cc1-c1cc(NC(=O)c2nnc(CC3CCCCC3)[nH]2)ncc1F` [Example 493, 5-(cyclohexylmethyl)-N-(5-fluoro-4-(5-((4-hydroxy-4-methylpentyl)oxy)-2-methylphenyl)pyridin-2-yl)-4H-1,2,4-triazole-3-carboxamide] was tested, and the IC50 was ≤ 100 nM.

With `O=C(Nc1cc(-c2cc(OCC3CCOCC3)ccc2Cl)ncn1)c1nnc(CC2CCCCC2)[nH]1` [Example 469, 5-(cyclohexylmethyl)-N-(6-(2-chloro-5-((tetrahydro-2H-pyran-4-yl)methoxy)phenyl)pyrimidin-4-yl)-4H-1,2,4-triazole-3-carboxamide] the IC50 was ≤ 100 nM.

`Cc1ccc(OCCCCC(C)(C)O)cc1-c1cc(NC(=O)c2nnc(Cc3ccccc3F)[nH]2)ncc1F` [Example 494, N-(5-fluoro-4-(5-((5-hydroxyl-5-methylhexyl)oxy)-2-methylphenyl)pyridin-2-yl)-5-(2-fluorobenzyl)-4H-1,2,4-triazole-3-carboxamide] was tested, and the IC50 was ≤ 100 nM.

With `CC(C)(C)OCCOc1ccc(Cl)c(-c2ccnc(NC(=O)c3nnc(Cc4ccccc4F)[nH]3)c2)c1` [Example 392, 5-(2-fluorobenzyl)-N-(4-(5-(2-(tert-butoxy)ethoxy)-2-chlorophenyl)pyridin-2-yl)-4H-1,2,4-triazole-3-carboxamide] the IC50 was ≤ 100 nM.

For `Cc1ccc(OCCC2CCOCC2)cc1-c1ccnc(NC(=O)c2nnc(CC3CCCC3)[nH]2)c1` [Example 88, 5-(cyclopentylmethyl)-N-(4-(2-methyl-5-(2-(tetrahydro-2H-pyran-4-yl)ethoxy)phenyl)pyridin-2-yl)-4H-1,2,4-triazole-3-carboxamide], the IC50 was ≤ 100 nM.

In the case of `Cc1ccc(OCCC2CCOCC2)cc1-c1cc(NC(=O)c2nnc(CC3CCCCC3)[nH]2)ncc1C` [Example 254, 5-(cyclohexylmethyl)-N-(5-methyl-4-(2-methyl-5-(2-(tetrahydro-2H-pyran-4-yl)ethoxy)phenyl)pyridin-2-yl)-4H-1,2,4-triazole-3-carboxamide], the IC50 is reported as 100 to 1000 nM.

Work on `COc1cnc(C)cc1-c1ccnc(NC(=O)c2nnc(Cc3ccccc3)[nH]2)c1` [Example 61, 5-benzyl-N-(5′-methoxy-2′-methyl-[4,4′-bipyridin]-2-yl)-4H-1,2,4-triazole-3-carboxamide] yielded an IC50 of 1000 to 10000 nM.

In the case of `CCC(O)(CC)CCCOc1ccc(C)c(-c2cc(NC(=O)c3nnc(Cc4ccccc4F)[nH]3)ncc2F)c1` [Example 242, N-(4-(5-((4-ethyl-4-hydroxyhexyl)oxy)-2-methylphenyl)-5-fluoropyridin-2-yl)-5-(2-fluorobenzyl)-4H-1,2,4-triazole-3-carboxamide], the IC50 is reported as ≤ 100 nM.

`Cc1ccc(OCC2(O)CC2)cc1-c1ccnc(NC(=O)c2nnc(Cc3ccccc3)[nH]2)c1` [Example 159, 5-benzyl-N-(4-(5-((1-hydroxycyclopropyl)methoxy)-2-methylphenyl)pyridin-2-yl)-4H-1,2,4-triazole-3-carboxamide] was tested, and the IC50 was ≤ 100 nM.
